pKi: −log10 of the molar value.

The target in one assay is T1, JAK3 (Homo sapiens, UniProt P52333).
T1 sequence (P52333 1-1124): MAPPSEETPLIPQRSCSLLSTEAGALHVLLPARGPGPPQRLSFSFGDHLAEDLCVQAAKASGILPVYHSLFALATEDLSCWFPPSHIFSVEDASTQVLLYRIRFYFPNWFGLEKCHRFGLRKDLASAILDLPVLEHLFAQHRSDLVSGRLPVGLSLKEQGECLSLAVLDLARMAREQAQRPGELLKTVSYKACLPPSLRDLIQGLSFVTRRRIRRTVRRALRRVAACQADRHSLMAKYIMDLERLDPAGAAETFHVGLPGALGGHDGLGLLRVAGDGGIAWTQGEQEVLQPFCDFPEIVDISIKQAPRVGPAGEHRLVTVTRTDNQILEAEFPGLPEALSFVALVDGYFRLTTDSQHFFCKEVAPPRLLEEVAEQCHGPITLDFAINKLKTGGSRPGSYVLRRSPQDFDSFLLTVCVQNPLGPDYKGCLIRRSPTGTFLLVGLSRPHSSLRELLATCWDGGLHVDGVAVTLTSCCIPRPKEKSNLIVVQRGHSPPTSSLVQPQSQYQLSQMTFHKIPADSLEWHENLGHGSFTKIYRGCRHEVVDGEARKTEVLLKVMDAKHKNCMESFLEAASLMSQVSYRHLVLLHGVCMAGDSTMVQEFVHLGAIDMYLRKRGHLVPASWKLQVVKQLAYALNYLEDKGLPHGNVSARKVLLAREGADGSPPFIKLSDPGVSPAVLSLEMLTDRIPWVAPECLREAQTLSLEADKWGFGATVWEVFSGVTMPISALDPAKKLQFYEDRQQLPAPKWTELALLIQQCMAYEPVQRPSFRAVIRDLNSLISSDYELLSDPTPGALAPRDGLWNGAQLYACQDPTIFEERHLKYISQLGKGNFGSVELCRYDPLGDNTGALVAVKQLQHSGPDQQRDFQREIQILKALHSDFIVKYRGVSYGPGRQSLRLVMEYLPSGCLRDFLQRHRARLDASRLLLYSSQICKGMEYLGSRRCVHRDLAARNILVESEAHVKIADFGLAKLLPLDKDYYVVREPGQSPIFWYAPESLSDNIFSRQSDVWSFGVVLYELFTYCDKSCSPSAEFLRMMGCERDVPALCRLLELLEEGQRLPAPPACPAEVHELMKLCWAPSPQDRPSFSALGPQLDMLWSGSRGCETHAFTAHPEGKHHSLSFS
Nature of the assay: JAK3 Inhibition Assay, 33P incorporation. The note with it: enzyme inhibition data (Ki), Table 11. Format: biochemical. In outline:
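33P incorporation into 1 μM poly(Glu)4Tyr was counted after TCA stop and glass fiber filtration. The 20 min reaction ran at 25 °C with 1 nM JAK3 and 5 μM ATP (200 uCi/μmole). Buffer was 100 mM HEPES pH 7.4, 10 mM MgCl2, 25 mM NaCl, 1 mM DTT, 0.01% BSA.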

The next assay has as its target T2, Itk (Homo sapiens, UniProt Q08881).
T2 sequence (Q08881 1-620): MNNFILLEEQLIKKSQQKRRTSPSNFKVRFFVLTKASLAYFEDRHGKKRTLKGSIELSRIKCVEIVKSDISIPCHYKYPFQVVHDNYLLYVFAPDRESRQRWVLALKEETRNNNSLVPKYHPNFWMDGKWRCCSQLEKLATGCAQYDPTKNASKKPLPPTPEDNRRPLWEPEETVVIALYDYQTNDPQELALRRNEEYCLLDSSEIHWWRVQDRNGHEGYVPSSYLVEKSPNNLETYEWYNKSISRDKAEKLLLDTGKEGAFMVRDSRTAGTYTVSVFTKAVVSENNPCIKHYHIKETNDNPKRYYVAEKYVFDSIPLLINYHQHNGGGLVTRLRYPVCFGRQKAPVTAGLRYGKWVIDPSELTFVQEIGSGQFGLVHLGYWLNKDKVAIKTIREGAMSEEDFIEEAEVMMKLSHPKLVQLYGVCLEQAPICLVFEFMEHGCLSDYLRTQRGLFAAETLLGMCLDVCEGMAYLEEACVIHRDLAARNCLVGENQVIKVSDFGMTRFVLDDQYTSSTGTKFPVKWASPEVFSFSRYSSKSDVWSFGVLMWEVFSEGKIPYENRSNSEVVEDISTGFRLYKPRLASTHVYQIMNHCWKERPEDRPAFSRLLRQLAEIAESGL
Nature of the assay: ITK Inhibition Assay (Radiometric), radioactive-phosphate incorporation. The note with it: enzyme inhibition data (Ki), Table 11; radiometric or UV assay not stated. Format: biochemical. The method, boiled down: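 Radiometric 33P incorporation into SAM68 peptide (D332-443) with filter capture and scintillation counting; 10 min pre-incubation then 10 min reaction at 25° C. IC50 format: 30 nM Itk, 15 μM ATP, 2 μM peptide, HEPES pH 7.5. Ki(app) format: 50 nM Itk, 7.5 μM ATP, 3 μM peptide, MOPS pH 7.0.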

In the case of `COc1ccc(-c2cnc3c(C#N)c(N)nn3c2)cc1` [Compound V-2], the pKi (commonly the negative decadic logarithm of the Ki, by convention in mol/L) was below 5.30 on JAK3 and 5.30 to 6.30 at Itk.
Turning to `COc1ccncc1-c1cnc2c(-c3ccccn3)c(N)nn2c1` [Compound V-22], the pKi on JAK3 is below 5.30; at Itk, 5.30 to 6.30.
Turning to `CCOC(=O)c1c(N)nn2cc(-c3ccc(Cl)cc3)cnc12` [Compound V-24], the pKi was below 5.30 at JAK3 and 5.30 to 6.30 on Itk.
For `CCN(C(=O)c1c(N)nn2cc(-c3ccncn3)cnc12)C(C)C` [Compound V-33], in that order: below 5.30 and 5.30 to 6.30.
Regarding `CC(C)N1CCN(c2ccc(-c3cnc4c(-c5ccccn5)c(N)nn4c3)cc2)CC1` [Compound V-51], the values for the pKi at JAK3 and at Itk were 5.30 to 6.30 and above 6.30, respectively.
For `CN(C)CCNC(=O)c1cccc(-c2cnc3c(-c4ccccn4)c(N)nn3c2)c1` [Compound V-54], in that order: below 5.30 and 5.30 to 6.30.
`CN1CCN(C(=O)c2cccc(-c3cnc4c(-c5ccccn5)c(N)nn4c3)c2)CC1` [Compound V-55]: the pKi at JAK3 is below 5.30; at Itk, 5.30 to 6.30.
In the case of `Nc1nn2cc(N3CCOCC3)cnc2c1-c1ccccn1` [Compound V-57], the figures for the pKi on JAK3 and at Itk were below 5.30 and 5.30 to 6.30, respectively.
As for `CCN(CCN)C(=O)c1ccc(-c2cnc3c(-c4ccccn4)c(N)nn3c2)nc1` [Compound V-62], the results for the pKi at JAK3 and at Itk were 5.30 to 6.30 and above 6.30, respectively.
For the compound `CCN1CCN(C(=O)c2ccc(-c3cnc4c(-c5ccccn5)c(N)nn4c3)nc2)CC1` [Compound V-63], the pKi is 5.30 to 6.30 on JAK3 and above 6.30 on Itk.
On to `COC(=O)N1CCN(C(=O)c2ccc(-c3cnc4c(-c5ccccn5)c(N)nn4c3)nc2)CC1` [Compound V-64], for which the results for the pKi on JAK3 and at Itk were 5.30 to 6.30 and above 6.30, respectively.
As to `CN(C)CCNC(=O)c1ccc(-c2cnc3c(-c4ccccn4)c(N)nn3c2)nc1` [Compound V-65], the pKi at JAK3 is 5.30 to 6.30; at Itk, above 6.30.
For `CC(C)N(C)C(=O)c1ccc(-c2cnc3c(-c4ccccn4)c(N)nn3c2)nc1` [Compound V-67], in that order: 5.30 to 6.30 and 5.30 to 6.30.
As for `COCCN1CCN(C(=O)c2ccc(-c3cnc4c(-c5ccccn5)c(N)nn4c3)nc2)CC1` [Compound V-68], the pKi was 5.30 to 6.30 on JAK3 and above 6.30 at Itk.
In the case of `CN1CCCN(C(=O)c2ccc(-c3cnc4c(-c5ccccn5)c(N)nn4c3)nc2)CC1` [Compound V-70], the negative logarithm of the Ki (pKi) on JAK3 is 5.30 to 6.30; at Itk, above 6.30.
Turning to `Nc1nn2cc(-c3ccc(C(=O)N4CCCC(CO)C4)cn3)cnc2c1-c1ccccn1` (stereo not shown) [Compound V-71], the results for the pKi on JAK3 and on Itk were 5.30 to 6.30 and above 6.30, respectively.
Take `C#CCN(C)C(=O)c1ccc(-c2cnc3c(-c4ccccn4)c(N)nn3c2)nc1` [Compound V-72]: the negative logarithm of the Ki (pKi) on JAK3 is 5.30 to 6.30; at Itk, above 6.30.
`Nc1nn2cc(-c3ccc(C(=O)NCCF)cn3)cnc2c1-c1ccccn1` [Compound V-73]: the pKi on JAK3 is below 5.30; at Itk, 5.30 to 6.30.
Take `CCN(CCCCN)C(=O)c1ccc(-c2cnc3c(-c4ccccn4)c(N)nn3c2)nc1` [Compound V-74]: the pKi at JAK3 is 5.30 to 6.30; on Itk it was above 6.30.
`COCCN(C)C(=O)c1ccc(-c2cnc3c(-c4ccccn4)c(N)nn3c2)nc1` [Compound V-75]: the pKi at JAK3 was below 5.30; on Itk it was 5.30 to 6.30.
Consider `CCOC(=O)N1CCN(C(=O)c2ccc(-c3cnc4c(-c5ccccn5)c(N)nn4c3)nc2)CC1` [Compound V-76], for which the pKi is 5.30 to 6.30 on JAK3 and above 6.30 on Itk.
The matching figures for `CCN1CCN(C(=O)c2ccc(-c3cnc4c(-c5ccccn5)c(N)nn4c3)nc2)C(O)C1` (stereo not shown) [Compound V-78]: 5.30 to 6.30 and above 6.30.
As for `Nc1nn2cc(-c3ccc(C(=O)N4CCC[C@@H](O)C4)cn3)cnc2c1-c1ccccn1` [Compound V-79], the pKi on JAK3 is 5.30 to 6.30; on Itk, above 6.30.
On to `Nc1nn2cc(-c3ccc(C(=O)N4CCC(N)C4)cn3)cnc2c1-c1ccccn1` (stereo not shown) [Compound V-81], for which the pKi on JAK3 was 5.30 to 6.30; on Itk, above 6.30.
`Nc1nn2cc(-c3ccc(C(=O)N4CCCCC4CCO)cn3)cnc2c1-c1ccccn1` (stereo not shown) [Compound V-82]: the pKi at JAK3 is below 5.30; at Itk it was above 6.30.
Take `Nc1nn2cc(-c3ccc(C(=O)N4CCC(CCO)CC4)cn3)cnc2c1-c1ccccn1` [Compound V-83]: the pKi at JAK3 was 5.30 to 6.30; at Itk, above 6.30.
The matching figures for `CCCN(CCCN)C(=O)c1ccc(-c2cnc3c(-c4ccccn4)c(N)nn3c2)nc1` [Compound V-85]: 5.30 to 6.30 and above 6.30.
Consider `Nc1nn2cc(-c3ccc(C(=O)N4CCC4)cn3)cnc2c1-c1ccccn1` [Compound V-86], for which the pKi on JAK3 was below 5.30; on Itk, 5.30 to 6.30.
`Nc1nn2cc(-c3ccc(C(=O)N4CCSCC4)cn3)cnc2c1-c1ccccn1` [Compound V-87]: the negative logarithm of the Ki (pKi) on JAK3 was 5.30 to 6.30; at Itk it was above 6.30.
For `CCN(C)C(=O)c1ccc(-c2cnc3c(-c4ccccn4)c(N)nn3c2)nc1` [Compound V-89], the pKi was 5.30 to 6.30 at JAK3 and above 6.30 at Itk.
With `CCN(CCC#N)C(=O)c1ccc(-c2cnc3c(-c4ccccn4)c(N)nn3c2)nc1` [Compound V-90], the pKi at JAK3 was 5.30 to 6.30; at Itk, above 6.30.
The matching figures for `CCCN(CCO)C(=O)c1ccc(-c2cnc3c(-c4ccccn4)c(N)nn3c2)nc1` [Compound V-92]: 5.30 to 6.30 and above 6.30.
On to `Nc1nn2cc(-c3ccc(C(=O)N4CCC[C@@H]4CO)cn3)cnc2c1-c1ccccn1` [Compound V-93], for which the figures for the pKi on JAK3 and at Itk were 5.30 to 6.30 and above 6.30, respectively.
As to `CN(CCN)C(=O)c1ccc(-c2cnc3c(-c4ccccn4)c(N)nn3c2)nc1` [Compound V-94], the pKi on JAK3 is below 5.30; on Itk it was above 6.30.
For `Cc1cnc2c(-c3cc(NC(C)C)ncn3)c(N)nn2c1` [Compound V-273], in that order: 5.30 to 6.30 and 5.30 to 6.30.
For the compound `COc1ccccc1Nc1cc(-c2c(N)nn3cc(C)cnc23)ncn1` [Compound V-274], the pKi was 5.30 to 6.30 at JAK3 and above 6.30 on Itk.
`Cc1cnc2c(-c3cc(N4CCCCC4)ncn3)c(N)nn2c1` [Compound V-276]: the pKi on JAK3 was 5.30 to 6.30; at Itk it was above 6.30.
For the compound `Cc1cnc2c(-c3cc(NCC4CC4)ncn3)c(N)nn2c1` [Compound V-277], the pKi on JAK3 and on Itk was 5.30 to 6.30 in each case.
On to `Cc1cnc2c(-c3cc(NCC4CCCO4)ncn3)c(N)nn2c1` (stereo not shown) [Compound V-278], for which the pKi on JAK3 and on Itk was 5.30 to 6.30 each time.
With `Cc1cnc2c(-c3cc(Nc4ccccc4)ncn3)c(N)nn2c1` [Compound V-279], the pKi on JAK3 and at Itk was above 6.30 in each case.
For the compound `Nc1nn2cc(Cl)cnc2c1-c1ccccn1` [Compound V-280], the figures for the pKi at JAK3 and at Itk were below 5.30 and 5.30 to 6.30, respectively.

These data come from US7528138B2, “Pyrazolo[1,5-a]pyrimidines useful as inhibitors of protein kinases” (Vertex Pharmaceuticals Incorporated, priority 2004, dated 2009).
